Here are results for 13 compounds from ChEMBL document CHEMBL5465560, “Selectivity Literature for EUbOPEN Chemogenomic Library” (2024).

Assay [1] addresses T1, Tyrosine-protein kinase receptor TYRO3 (Homo sapiens) (UniProt Q06418).
T1 sequence (whole entry): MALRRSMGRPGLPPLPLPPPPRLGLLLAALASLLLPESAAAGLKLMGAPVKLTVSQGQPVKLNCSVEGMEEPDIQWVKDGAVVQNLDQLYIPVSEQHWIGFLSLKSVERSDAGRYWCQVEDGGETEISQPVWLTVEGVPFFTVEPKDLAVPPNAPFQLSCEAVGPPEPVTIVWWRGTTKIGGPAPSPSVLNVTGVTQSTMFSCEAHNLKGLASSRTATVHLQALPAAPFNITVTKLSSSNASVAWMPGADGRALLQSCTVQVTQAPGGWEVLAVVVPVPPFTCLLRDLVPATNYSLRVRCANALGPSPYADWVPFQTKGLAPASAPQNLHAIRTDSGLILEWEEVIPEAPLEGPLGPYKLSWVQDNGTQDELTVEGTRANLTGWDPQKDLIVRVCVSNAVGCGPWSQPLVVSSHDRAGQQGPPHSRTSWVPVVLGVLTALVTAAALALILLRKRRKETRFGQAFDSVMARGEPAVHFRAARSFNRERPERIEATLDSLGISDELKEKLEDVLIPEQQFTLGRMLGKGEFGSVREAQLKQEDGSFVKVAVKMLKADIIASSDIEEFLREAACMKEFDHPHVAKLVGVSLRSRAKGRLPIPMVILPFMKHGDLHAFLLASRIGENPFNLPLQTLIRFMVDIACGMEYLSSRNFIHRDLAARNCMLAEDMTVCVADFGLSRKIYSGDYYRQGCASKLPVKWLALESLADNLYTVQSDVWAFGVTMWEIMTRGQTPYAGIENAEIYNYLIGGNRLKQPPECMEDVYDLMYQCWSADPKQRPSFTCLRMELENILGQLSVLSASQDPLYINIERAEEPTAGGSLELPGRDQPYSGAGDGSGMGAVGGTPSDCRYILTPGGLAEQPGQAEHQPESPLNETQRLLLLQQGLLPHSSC
Nature of the assay: Selectivity interaction (KinomeScan (DiscoverX)) EUB0000595a TYRO3. The following applies: at 10 µM.

The target in assay [2] is Glutamate receptor ionotropic, NMDA 1 (Homo sapiens) (UniProt Q05586). Nature of the assay: Selectivity interaction (Eurofins CEREP Diversity Profile (receptors and ion channels)) EUB0000279b GRIN1. The conditions noted are these: at 10 µM.
Assay [3] has as its target Thyrotropin-releasing hormone receptor (Homo sapiens) (UniProt P34981). Nature of the assay: Selectivity interaction (Eurofins CEREP Diversity Profile (receptors and ion channels)) EUB0000279b TRH. The following applies: at 10 µM.
Assay [4] addresses Cyclin-dependent kinase 14 (Homo sapiens) (UniProt O94921). Nature of the assay: Selectivity interaction (KinomeScan (DiscoverX)) EUB0000695a CDK14. The conditions noted are these: at 100 nM.
Assay [5] has as its system Hepatocyte growth factor receptor (Homo sapiens), P08581 [M1250T]. Nature of the assay: (§1) Selectivity interaction (KinomeScan (DiscoverX)) EUB0000607a MET. The conditions noted are these: at 10 µM.
Assay [6] concerns Hepatocyte growth factor receptor (Homo sapiens), P08581 [Y1235D]. The description is as §1. The conditions noted are these: at 10 µM.
Assay [7] deals with Hepatocyte growth factor receptor (Homo sapiens, UniProt P08581). Described as §1. The following applies: at 10 µM.
In assay [8] the target is Serine/threonine-protein kinase tousled-like 2 (Homo sapiens) (UniProt Q86UE8). Nature of the assay: Selectivity interaction (KinomeScan (DiscoverX)) EUB0000607a TLK2. The following applies: at 10 µM.
The target in assay [9] is Non-receptor tyrosine-protein kinase TYK2 (Homo sapiens, UniProt P29597). Nature of the assay: Selectivity interaction (KinomeScan (DiscoverX)) EUB0000607a TYK2. The conditions noted are these: at 10 µM.
Assay [10] has as its target STE20-like serine/threonine-protein kinase (Homo sapiens, UniProt Q9H2G2). Nature of the assay: Selectivity interaction (ActivX KiNativ screen (kinase selectivity in THP-1 cell lysates)) EUB0000639a SLK. The assay is classed as subcellular. The conditions noted are these: lysate, at 0.01 µM.
Assay [11] addresses Serine/threonine-protein kinase WNK2 (Homo sapiens) (UniProt Q9Y3S1). Nature of the assay: Selectivity interaction (ActivX KiNativ screen (kinase selectivity in THP-1 cell lysates)) EUB0000639a WNK2. The assay is classed as subcellular. The following applies: lysate, at 1 µM.
The target in assay [12] is Platelet-derived growth factor receptor alpha (Homo sapiens, UniProt P16234). Nature of the assay: Selectivity interaction (KinomeScan (DiscoverX)) EUB0000045b PDGFRA.
Assay [13] has as its target RAC-alpha serine/threonine-protein kinase (Homo sapiens, UniProt P31749). Nature of the assay: Selectivity interaction (ProQinase) EUB0000171b AKT1.
For assay [14], the target named is Serine/threonine-protein kinase PLK3 (Homo sapiens, UniProt Q9H4B4). Nature of the assay: Selectivity interaction (Ambit KINOMEscan and KiNATiv profiling in Jurkat cells) EUB0000090b PLK3. The conditions noted are these: at 1 µM. The format is cell-based.
In assay [15] the target is T2, Activin receptor type-1B (Homo sapiens) (UniProt P36896).
T2 sequence (whole entry): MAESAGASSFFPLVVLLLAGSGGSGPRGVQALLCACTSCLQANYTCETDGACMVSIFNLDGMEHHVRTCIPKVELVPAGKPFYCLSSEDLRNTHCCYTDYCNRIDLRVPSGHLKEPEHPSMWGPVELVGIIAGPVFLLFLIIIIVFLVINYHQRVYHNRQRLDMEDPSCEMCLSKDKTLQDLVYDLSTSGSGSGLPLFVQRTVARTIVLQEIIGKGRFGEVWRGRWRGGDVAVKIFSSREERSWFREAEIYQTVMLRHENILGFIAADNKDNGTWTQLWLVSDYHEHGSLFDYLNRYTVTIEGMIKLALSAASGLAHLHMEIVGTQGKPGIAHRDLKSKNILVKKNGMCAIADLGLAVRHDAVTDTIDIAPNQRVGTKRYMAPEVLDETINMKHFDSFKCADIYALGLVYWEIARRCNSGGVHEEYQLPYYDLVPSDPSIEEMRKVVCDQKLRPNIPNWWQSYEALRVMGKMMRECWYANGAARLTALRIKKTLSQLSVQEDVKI
Nature of the assay: Selectivity interaction (Upstate Kinase Profiler service (Millipore)) EUB0000056c ACVR1B. The conditions noted are these: at 1 µM.

Assay [16] deals with N6-adenosine-methyltransferase catalytic subunit (Homo sapiens) (UniProt Q86U44). Nature of the assay: Selectivity interaction (Transferase panel (protein, RNA, and DNA methyltransferases. and EP300 (acetyltransferase))) EUB0000270b METTL3.
The target in assay [17] is T1, Tyrosine-protein kinase receptor TYRO3 (Homo sapiens). Nature of the assay: Selectivity interaction (KinomeScan (DiscoverX)) EUB0001079a TYRO3. The conditions noted are these: at 1 µM.
Assay [18] addresses 5-hydroxytryptamine receptor 1B (Homo sapiens) (UniProt P28222). Nature of the assay: Selectivity interaction (Panel of kinases, GPCRs, ion channels and transporters (enzymatic assay)) EUB0000266bCl HTR1B.
In assay [19] the target is Serine/threonine-protein kinase PRP4 homolog (Homo sapiens) (UniProt Q13523). Nature of the assay: Selectivity interaction (Kinase panel (KiNativ target engagement assay in Jurkat cells)) EUB0001635a PRPF4. The assay is classed as cell-based. The following applies: Selectivity number of off-targets 0.0, Selectivity number of targets 233.0, Source Knowledge https://www.sciencedirect.com/science/article/pii/S2451945619300674?via%3Dihub, at 1 µM.

Chain of N6-adenosine-methyltransferase catalytic subunit (Homo sapiens) (Q86U44 whole entry): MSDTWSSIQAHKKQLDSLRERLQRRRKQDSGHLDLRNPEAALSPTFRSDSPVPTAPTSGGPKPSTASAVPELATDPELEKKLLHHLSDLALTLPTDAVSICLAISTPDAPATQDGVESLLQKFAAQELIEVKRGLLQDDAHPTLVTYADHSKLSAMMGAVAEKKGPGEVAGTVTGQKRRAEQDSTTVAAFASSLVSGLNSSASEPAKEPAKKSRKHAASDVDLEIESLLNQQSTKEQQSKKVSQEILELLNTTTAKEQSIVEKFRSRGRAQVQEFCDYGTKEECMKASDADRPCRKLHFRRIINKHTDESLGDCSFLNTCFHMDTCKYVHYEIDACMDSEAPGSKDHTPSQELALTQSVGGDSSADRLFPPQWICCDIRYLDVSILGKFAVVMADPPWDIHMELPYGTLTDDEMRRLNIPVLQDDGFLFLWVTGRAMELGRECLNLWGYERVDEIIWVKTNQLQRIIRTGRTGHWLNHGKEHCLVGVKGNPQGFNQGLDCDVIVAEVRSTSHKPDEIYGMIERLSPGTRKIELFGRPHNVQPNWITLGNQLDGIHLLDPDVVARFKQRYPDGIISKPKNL
Chain of Platelet-derived growth factor receptor alpha (P16234 whole entry): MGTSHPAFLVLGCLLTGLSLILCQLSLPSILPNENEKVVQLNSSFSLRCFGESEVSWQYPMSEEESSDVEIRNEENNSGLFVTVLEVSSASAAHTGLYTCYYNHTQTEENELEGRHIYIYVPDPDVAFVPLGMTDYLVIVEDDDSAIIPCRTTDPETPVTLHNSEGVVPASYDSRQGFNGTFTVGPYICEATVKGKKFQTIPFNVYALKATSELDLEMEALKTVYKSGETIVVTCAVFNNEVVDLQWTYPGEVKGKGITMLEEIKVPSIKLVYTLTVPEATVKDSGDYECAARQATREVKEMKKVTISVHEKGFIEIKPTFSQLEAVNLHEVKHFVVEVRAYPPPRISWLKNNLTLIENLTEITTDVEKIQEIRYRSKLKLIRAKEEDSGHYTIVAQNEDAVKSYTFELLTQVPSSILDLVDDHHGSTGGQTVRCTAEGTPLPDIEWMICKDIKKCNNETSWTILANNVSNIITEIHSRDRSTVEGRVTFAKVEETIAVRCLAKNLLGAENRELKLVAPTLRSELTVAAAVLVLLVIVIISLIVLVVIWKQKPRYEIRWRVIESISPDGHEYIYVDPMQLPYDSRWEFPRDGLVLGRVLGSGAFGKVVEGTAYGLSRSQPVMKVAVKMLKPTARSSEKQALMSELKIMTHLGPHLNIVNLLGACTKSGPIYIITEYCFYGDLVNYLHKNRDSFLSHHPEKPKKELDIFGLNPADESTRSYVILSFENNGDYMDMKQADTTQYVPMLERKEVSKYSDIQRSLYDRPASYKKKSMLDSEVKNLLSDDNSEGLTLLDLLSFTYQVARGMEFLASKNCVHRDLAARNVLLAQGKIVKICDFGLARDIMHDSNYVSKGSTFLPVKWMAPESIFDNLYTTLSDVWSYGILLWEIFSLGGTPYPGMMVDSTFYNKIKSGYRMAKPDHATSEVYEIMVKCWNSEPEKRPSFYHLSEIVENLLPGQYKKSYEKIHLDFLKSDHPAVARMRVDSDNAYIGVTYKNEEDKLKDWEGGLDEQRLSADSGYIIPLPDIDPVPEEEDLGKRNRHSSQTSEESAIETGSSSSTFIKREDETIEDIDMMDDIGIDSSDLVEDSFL
Chain of RAC-alpha serine/threonine-protein kinase (P31749 whole entry): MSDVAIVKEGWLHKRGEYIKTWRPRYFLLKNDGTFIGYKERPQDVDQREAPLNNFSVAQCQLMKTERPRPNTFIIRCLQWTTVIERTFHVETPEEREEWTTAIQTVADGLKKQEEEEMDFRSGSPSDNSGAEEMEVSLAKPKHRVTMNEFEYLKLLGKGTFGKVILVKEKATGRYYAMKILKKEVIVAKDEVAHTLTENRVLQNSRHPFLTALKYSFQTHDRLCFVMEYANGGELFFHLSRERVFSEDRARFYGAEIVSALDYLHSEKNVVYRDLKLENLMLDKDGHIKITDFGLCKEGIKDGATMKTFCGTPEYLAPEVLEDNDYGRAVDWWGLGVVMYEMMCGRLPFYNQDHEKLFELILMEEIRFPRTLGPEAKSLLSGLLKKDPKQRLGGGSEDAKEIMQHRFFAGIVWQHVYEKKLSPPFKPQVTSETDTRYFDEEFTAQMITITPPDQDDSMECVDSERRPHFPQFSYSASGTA
Chain of Cyclin-dependent kinase 14 (Homo sapiens) (O94921 whole entry): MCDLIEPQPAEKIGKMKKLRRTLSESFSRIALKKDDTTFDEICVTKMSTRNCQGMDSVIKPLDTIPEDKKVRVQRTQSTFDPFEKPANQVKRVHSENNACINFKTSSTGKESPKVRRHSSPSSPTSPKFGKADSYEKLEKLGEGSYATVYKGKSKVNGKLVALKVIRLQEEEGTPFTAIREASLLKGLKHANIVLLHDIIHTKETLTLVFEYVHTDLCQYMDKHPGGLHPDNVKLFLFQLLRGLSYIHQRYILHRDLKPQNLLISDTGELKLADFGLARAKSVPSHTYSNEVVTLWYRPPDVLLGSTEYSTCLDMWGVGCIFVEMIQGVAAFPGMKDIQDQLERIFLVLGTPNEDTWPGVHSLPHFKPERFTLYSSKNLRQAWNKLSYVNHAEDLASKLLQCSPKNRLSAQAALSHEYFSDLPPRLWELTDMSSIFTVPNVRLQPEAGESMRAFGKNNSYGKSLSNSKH
Chain of Hepatocyte growth factor receptor (Homo sapiens), P08581 [Y1235D] (P08581 whole entry Y1235D): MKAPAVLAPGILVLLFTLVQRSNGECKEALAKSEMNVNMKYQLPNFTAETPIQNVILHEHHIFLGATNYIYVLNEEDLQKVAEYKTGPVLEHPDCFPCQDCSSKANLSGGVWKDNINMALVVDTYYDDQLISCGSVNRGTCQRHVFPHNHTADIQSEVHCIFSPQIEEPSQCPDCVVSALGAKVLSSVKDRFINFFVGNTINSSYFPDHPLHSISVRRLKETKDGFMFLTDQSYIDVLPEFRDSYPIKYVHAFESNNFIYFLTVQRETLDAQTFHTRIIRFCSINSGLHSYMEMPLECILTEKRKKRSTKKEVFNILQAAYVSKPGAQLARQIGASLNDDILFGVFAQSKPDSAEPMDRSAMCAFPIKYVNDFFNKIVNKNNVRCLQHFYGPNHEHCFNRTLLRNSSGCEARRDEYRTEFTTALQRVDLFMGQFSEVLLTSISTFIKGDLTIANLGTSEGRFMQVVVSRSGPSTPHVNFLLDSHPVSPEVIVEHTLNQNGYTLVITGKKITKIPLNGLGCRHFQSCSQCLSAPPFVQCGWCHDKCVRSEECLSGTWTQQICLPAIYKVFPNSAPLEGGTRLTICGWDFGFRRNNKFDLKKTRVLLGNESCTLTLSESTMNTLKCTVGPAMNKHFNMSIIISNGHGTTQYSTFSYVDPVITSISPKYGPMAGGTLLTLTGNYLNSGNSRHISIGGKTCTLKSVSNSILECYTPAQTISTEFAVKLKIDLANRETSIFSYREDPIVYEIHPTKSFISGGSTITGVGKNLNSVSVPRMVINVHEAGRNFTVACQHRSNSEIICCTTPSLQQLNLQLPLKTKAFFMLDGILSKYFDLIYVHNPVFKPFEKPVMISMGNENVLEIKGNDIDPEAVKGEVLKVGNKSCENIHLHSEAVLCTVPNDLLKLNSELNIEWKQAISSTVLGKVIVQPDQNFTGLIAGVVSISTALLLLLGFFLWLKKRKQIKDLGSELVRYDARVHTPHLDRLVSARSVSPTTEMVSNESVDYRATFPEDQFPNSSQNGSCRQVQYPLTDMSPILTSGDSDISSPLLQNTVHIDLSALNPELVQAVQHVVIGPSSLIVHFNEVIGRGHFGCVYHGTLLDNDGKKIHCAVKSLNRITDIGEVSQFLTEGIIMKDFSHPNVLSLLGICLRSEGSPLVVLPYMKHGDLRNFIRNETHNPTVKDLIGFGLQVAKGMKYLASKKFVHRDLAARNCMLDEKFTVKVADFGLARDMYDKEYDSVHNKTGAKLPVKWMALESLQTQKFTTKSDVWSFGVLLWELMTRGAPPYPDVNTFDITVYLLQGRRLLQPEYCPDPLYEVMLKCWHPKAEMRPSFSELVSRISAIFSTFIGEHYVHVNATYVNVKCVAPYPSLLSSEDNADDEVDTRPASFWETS
Chain of Serine/threonine-protein kinase PLK3 (Q9H4B4 whole entry, looked up): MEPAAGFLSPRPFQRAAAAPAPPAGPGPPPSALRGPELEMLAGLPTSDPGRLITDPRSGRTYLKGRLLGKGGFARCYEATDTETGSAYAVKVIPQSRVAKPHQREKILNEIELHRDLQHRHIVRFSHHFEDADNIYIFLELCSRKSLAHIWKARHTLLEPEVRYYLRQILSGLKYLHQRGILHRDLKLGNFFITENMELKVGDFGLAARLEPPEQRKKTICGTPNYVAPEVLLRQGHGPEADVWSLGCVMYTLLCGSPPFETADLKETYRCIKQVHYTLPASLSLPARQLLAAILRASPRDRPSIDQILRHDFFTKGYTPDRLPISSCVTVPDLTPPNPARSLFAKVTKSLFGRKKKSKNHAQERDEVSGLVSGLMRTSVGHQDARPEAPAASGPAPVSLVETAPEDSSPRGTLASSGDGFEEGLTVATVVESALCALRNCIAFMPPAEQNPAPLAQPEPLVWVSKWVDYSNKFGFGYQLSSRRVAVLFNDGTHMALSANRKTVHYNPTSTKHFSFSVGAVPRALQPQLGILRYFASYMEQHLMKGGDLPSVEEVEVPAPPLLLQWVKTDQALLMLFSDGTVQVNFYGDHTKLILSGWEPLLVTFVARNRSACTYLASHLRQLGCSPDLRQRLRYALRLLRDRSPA
Chain of 5-hydroxytryptamine receptor 1B (Homo sapiens) (P28222 whole entry): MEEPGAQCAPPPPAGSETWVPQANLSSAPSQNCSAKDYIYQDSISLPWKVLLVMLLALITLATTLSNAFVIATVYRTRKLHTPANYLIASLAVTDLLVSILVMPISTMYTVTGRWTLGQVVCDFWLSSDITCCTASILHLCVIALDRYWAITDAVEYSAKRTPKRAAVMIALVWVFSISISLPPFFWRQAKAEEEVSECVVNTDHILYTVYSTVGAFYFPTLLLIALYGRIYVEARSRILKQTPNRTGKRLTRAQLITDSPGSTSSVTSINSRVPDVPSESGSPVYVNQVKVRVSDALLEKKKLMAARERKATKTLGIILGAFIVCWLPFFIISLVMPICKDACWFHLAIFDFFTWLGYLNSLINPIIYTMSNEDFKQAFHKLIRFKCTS

As for `COCC(=O)NC/C=C/c1ccc2ncnc(Nc3ccc(Oc4ccc(C)nc4)c(C)c3)c2c1` [CP-724714], the % of control in assay [1] amounted to 80%.
`CC(=O)c1cc(-c2ccccc2OCC2CC2)c2ncccn12`: the % of control in [2] came to 106%; in [3], 94%.
As to `Cc1cc(F)c(C(=O)Nc2cccc(-c3nncn3C(C)C)n2)cc1-n1cnc(C2CC2)c1`, in assay [4], the % of control is 49%.
Turning to `CNC(=O)Nc1ccc(-c2nc(N3CC4CCC(C3)O4)c3cnn(C4CCC5(CC4)OCCO5)c3n2)cc1`, the % of control in assay [5] was found to be 87%; in assay [6] it was 24%; in [7] it was 93%; in assay [8], 100%; in assay [9], 100%.
For `CC[C@@H]1[C@H](F)C(=O)N[C@@H]1COc1nccc2cc(C(N)=O)c(OC)cc12` [ZIMLOVISERTIB], the % of inhibition in assay [10] is -0.7%; in assay [11], -7.7%.
Regarding `C=CC(=O)Nc1cc(-n2c(=O)ccc3cnc4ccc(-c5ccc(NS(C)(=O)=O)cc5)cc4c32)ccc1C`, the results for the % of control in assay [12] (at 1 µM) and in assay [12] (at 10 µM) were 92% and 100%, respectively.
With `C=CC(=O)Nc1cccc(C(=O)Nc2ccc(Nc3cc(-c4[nH]c(SC)nc4C)ccn3)cc2)c1`, the % of control came out at 84% in [13] (at 1 µM) and 69% in [13] (at 5 µM).
With `CN(C)C/C=C/C(=O)Nc1ccc(C(=O)N2CCCC(Nc3ncc(Cl)c(-c4c[nH]c5ccccc45)n3)C2)cc1` (configuration not stated), the % of control in [14] is 86%.
`Cc1ccc(-c2ccc3c(ccc4sc5c(c43)NC[C@@H](C)NC5=O)n2)cn1`: in [15], the % of inhibition came to 9%.
In the case of `Cc1cc(CN)cc(C)c1-c1ncn(C)c1-c1cncn1C`, the % activity in assay [16] (at 1 µM) is greater than 90%; in assay [16] (at 10 µM), greater than 80%.
Regarding `Nc1cnc(N2CCc3cc(S(=O)(=O)Nc4c(F)cc(Cl)cc4F)cc(N4CCCC4=O)c32)nc1` [TP-020n], the % of control in [17] was 100%.
Turning to `CCn1c(-c2nc3cc(C(=O)N4CCCC(N)C4)ccc3n2C)cc2ccccc21` (configuration not stated), the pXC50 in [18] was less than 4.5 M.
Take `C=CC(=O)Nc1ccc(C(=O)Nc2[nH]nc3c2CN(C(=O)N[C@H](CN(C)C)c2ccccc2)C3(C)C)cc1`: the % of engagement in assay [19] was -2.9%.
